Measurements: patent publication US20060217456A1, “Non-toxic coating composition, methods of use thereof and articles protected from attachment of biofouling organisms” (priority 2003, published 2006)
Converted amounts (≈) assume the structure as drawn. Where two headings read alike, the source gives them in different places.

Experiments:
[1] = tested on: cyprid stage larvae of the barnacle, Balanus amphitrite Darwin; experiment: Barnacle settlement assay (cyprid larvae in seawater dishes); format: in vivo; settings: single compound, 28° C., 9 hours; for EC50: Amphibalanus amphitrite, read-out: EC50 (concentration inhibiting settlement of 50% of cyprid larvae)
Source text: Adults of the barnacle, Balanus amphitrite Darwin, were collected from the Sacred Heart Marine Research Center at St. Mary's College in Tuticorin, India. The barnacles were crushed and the nauplius stage larvae were collected for culture to the cyprid stage following the method of Rittschof et al., J. Exp. Mar. Biol. Ecol., 82:131-146 (1984). The cyprid is the stage at which the barnacle larva is competent to attach to surfaces. Upon attachment to a surface, the larva then undergoes metamorphosis into a barnacle.
Barnacle settlement assays were undertaken using the method described previously by Rittschof et al., J. Chem. Ecol., 11: 551-563 (1985). Briefly, Falcon 50×9 mm plastic petri dishes were filled with 5 ml of filtered seawater at salinity of 33-35 parts per thousand (ppt) and into which 3-day old cyprid stage larvae were added. Menthol and/or isopulegol and/or compounds listed under ii) a) to f), above, were introduced at various concentrations into the dishes containing seawater. Controls were represented by those dishes in which no test compound were added. After incubation at 28° C. for 9 hours, the dishes were examined under a dissecting microscope to determine if there was any mortality. The larvae were then killed with 10% formalin and the number of attached and unattached larvae were counted. Settlement data were expressed as the percentage of the larvae attached to the bottom of the dish.
The settlement assay was used to determine the effective concentration of a number of different compounds listed under ii) a) to f), above. The effective concentration (EC50) is that concentration which inhibited the settlement of fifty percent (50%) of the cyprid stage of the barnacle larvae present in a test sample. The racemic […] compounds are denoted with the prefix rac-.

[2] = tested on: barnacle, Balanus amphitrite communis; experiment: Marine paint panel immersion test, barnacles attached to painted iron panels; settings: cuprous oxide marine paint on iron panels, submerged 78 weeks, Bitac Cove; control = 100
Method: A floating platform was constructed using layers of bamboo and styrofoam floats. The platform was designed with holders to accommodate test panels measuring 4 inches×12 inches×0.25 inches (1 inch=2.54 cm). A first experimental paint was prepared, containing a biocidally effective amount of cuprous oxide and no other biocide which was used as the control. This composition consisted of 40 parts by weight of cuprous oxide, 10 parts by weight of iron oxide red, 5 parts by weight of xylene, 10 parts by weight of butyl alcohol, 5 parts by weight polyamide resin, 6 parts by weight of plasticizer. To this composition was added a combination of 0.5% by weight of rac-isopulegol, 0.25% by weight of (−)-menthol and 0.25% by weight of 1-menthol propyleneglycol carbonate (Composition A). A second paint composition was prepared from the same marine paint vehicle containing cuprous oxide, to which was added 2% by weight of (−)-menthol (Composition B). A third formulation was made from the same cuprous oxide-containing marine paint vehicle, to which was added 2% by weight of rac-isopulegol (Composition C). A fourth formulation was made from the same cuprous oxide-containing marine paint vehicle, to which was added 2% by weight of 1-menthol propyleneglycol carbonate (Composition D). Solid iron panels having the above-mentioned dimensions were painted with the paint formulations thus prepared, placed in the holders in the floating platform and submerged continuously near the center of Bitac Cove in San Dionisio Bay (Philippines) for a period of 78 weeks. The panels were examined for a few minutes every three months and immediately resubmerged after photography. After 78 weeks, the panels were removed and inspected. The numbers of barnacles attached to the panels were counted. The major fouling organisms included the barnacle, Balanus amphitrite communis, and the rock oyster, Crossostrea cuculata.

[3] = tested on: cyprid stage larvae of the barnacle, Balanus amphitrite Darwin; settings: single compound; 28° C., 9 hours; see WO 01/95718; cited from earlier work

CC(O)C(=O)O[C@@H]1C[C@H](C)CC[C@H]1C(C)C (mixture of isomers) [I-menthyl lactate, 1-menthyllactate]
EC50 [1]: 0.002 µg/mL

C=C(C)[C@@H]1CC[C@@H](C)C[C@H]1O (racemic) [rac-isopulegol]
EC50 (concentration inhibiting settlement of 50% of cyprid larvae) [1]: 0.029 µg/mL
% Settlement [2]: 16.1%

CC1CCC(C(C)C)C(O)C1 (racemic) [rac-menthol]
EC50 (concentration inhibiting settlement of 50% of cyprid larvae) [3]: 0.1 (see WO 01/95718) mg/ml

CC1CCC(C(C)C)C2(C1)OCC(CO)O2 (racemic) [rac-menthone glycerin acetal]
EC50 (concentration inhibiting settlement of 50% of cyprid larvae) [1]: 0.049 µg/mL

CC1CCC(C(C)C)C(O)C1 (stereo not drawn) [1R, 2S, 5R-(−)-menthol (=l-menthol), 1R, 2S, 5R-(−)-menthol]
% Settlement [2]: 12.2%
EC50 (concentration inhibiting settlement of 50% of cyprid larvae) [3]: 4 * 10^−3 (see WO 01/95718) mg/ml

CC1CC[C@H](C(C)C)[C@@H](O)C1 (stereo partly drawn) [1S, 2R, 5S-(+)-menthol, reference compound]
EC50 (concentration inhibiting settlement of 50% of cyprid larvae) [3]: 0.1 (see WO 01/95718) mg/ml

C=C(C)[C@H]1CC=C(C)CC1 [d-limonene, reference compound]
EC50 (concentration inhibiting settlement of 50% of cyprid larvae) [1]: 0.029 µg/mL

CC(C)[C@@H]1CC[C@@H](C)C[C@@]12OCC(CO)O2 (stereo partly drawn) [menthone glycerin acetal]
EC50 [1]: 0.00052 µg/mL (≈ 0.00228 µM)

COC1CC(C)CCC1C(C)C (stereo not drawn) [menthylmethylether, reference compound]
EC50 [1]: 0.11 µg/mL (≈ 0.646 µM)

(−)-isopulegol
EC50 (concentration inhibiting settlement of 50% of cyprid larvae) [3]: 8.8 * 10^−5 (see WO 01/95718) mg/ml

(−)-menthone [reference compound]
EC50 (concentration inhibiting settlement of 50% of cyprid larvae) [3]: 0.001 (see WO 01/95718) mg/ml

l-menthyl propyleneglycol carbonate
EC50 (concentration inhibiting settlement of 50% of cyprid larvae) [1]: 0.0022 µg/mL
% Settlement [2]: 23.4%
